Data on 8 molecules can be found in publication PMC9457659, “Exploring The Relative Astringency of Tea Catechins and Distinct Astringent Sensation of Catechins and Flavonol Glycosides via an In Vitro Assay Composed of Artificial Oil Bodies” (Molecules, 2022).

The target in one assay is T1, caleosin–histatin 3 fusion protein (Homo sapiens, UniProt P15516).
T1 construct: gene HTN3; sesame caleosin lacking residues 101-115 fused with histatin 3; synthetic histatin DNA; E. coli BL21(DE3), insoluble pellet; about 29 kDa; with Caleosin (Peroxygenase)
T1 sequence (P15516 20-51): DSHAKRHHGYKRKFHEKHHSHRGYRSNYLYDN
T1 sequence (Q9SQ57 with tags, fused parts or gaps DEL101-115 partner): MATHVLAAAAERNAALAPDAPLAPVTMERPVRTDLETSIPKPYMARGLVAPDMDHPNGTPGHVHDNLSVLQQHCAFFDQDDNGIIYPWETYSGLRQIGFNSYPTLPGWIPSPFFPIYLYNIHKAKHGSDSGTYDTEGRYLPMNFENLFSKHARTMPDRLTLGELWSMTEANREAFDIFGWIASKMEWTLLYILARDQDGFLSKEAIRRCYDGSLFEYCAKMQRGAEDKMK
As to the kind of experiment: atomic force and scanning electron microscopy of artificial oil bodies. The assay is classed as binding. The settings on record: 5 mM rutin; oil bodies in distilled water, dried on silicon wafer; oil bodies alone set as 100%; indirect, no caleosin-only control.
As for `C[C@@H]1O[C@@H](OC[C@H]2O[C@@H](Oc3c(-c4ccc(O)c(O)c4)oc4cc(O)cc(O)c4c3=O)[C@H](O)[C@@H](O)[C@@H]2O)[C@H](O)[C@H](O)[C@H]1O` [rutin], the “relative surface roughness (%)” value was “a smooth surface was observed on artificial oil bodies complexed with rutin”.

A further assay addresses T1, caleosin–histatin 3 fusion protein. Briefly: flotation of aggregated artificial oil bodies (emulsion layer thickness), light microscopy. The settings on record: equal volumes oil bodies and 2 mM catechin; 100 mM potassium phosphate, 50 mM KCl, pH 7.0; normalised to ECG; indirect, no caleosin-only control. The assay is classed as binding.
Consider `Oc1cc(O)c2c(c1)O[C@H](c1ccc(O)c(O)c1)[C@@H](O)C2` [C, (+)-catechin], for which the “relative astringency (%)” value is listed as “aggregation of artificial oil bodies interacting with each catechin was examined”.

As for `O=C(O[C@@H]1Cc2c(O)cc(O)cc2O[C@H]1c1ccc(O)c(O)c1)c1cc(O)c(O)c(O)c1` [CG, (−)-catechin gallate], the “relative astringency (%)” value is listed as “aggregation of artificial oil bodies interacting with each catechin was examined”.

For the molecule `Oc1cc(O)c2c(c1)O[C@H](c1ccc(O)c(O)c1)[C@H](O)C2` [EC, (−)-epicatechin], the “relative astringency (%)” value is listed as “aggregation of artificial oil bodies interacting with each catechin was examined”.

`Oc1cc(O)c2c(c1)O[C@H](c1cc(O)c(O)c(O)c1)[C@H](O)C2` [EGC, (−)-epigallocatechin]: the “relative astringency (%)” value is “aggregation of artificial oil bodies interacting with each catechin was examined”.

Consider `O=C(O[C@@H]1Cc2c(O)cc(O)cc2O[C@@H]1c1cc(O)c(O)c(O)c1)c1cc(O)c(O)c(O)c1` [EGCG, (−)-epigallocatechin gallate], for which the “relative astringency (%)” value is “aggregation of artificial oil bodies interacting with each catechin was examined”.

Regarding `Oc1cc(O)c2c(c1)O[C@@H](c1cc(O)c(O)c(O)c1)[C@H](O)C2` [GC, (−)-gallocatechin], the “relative astringency (%)” value is recorded as “aggregation of artificial oil bodies interacting with each catechin was examined”.

For `O=C(O[C@@H]1Cc2c(O)cc(O)cc2O[C@H]1c1cc(O)c(O)c(O)c1)c1cc(O)c(O)c(O)c1` [GCG, (−)-gallocatechin gallate], the “relative astringency (%)” value was “aggregation of artificial oil bodies interacting with each catechin was examined”.
